Laboratory results reported in the supplement of paper PMC10307832.

Columns and labels:
Assay in all cases: relative viability (nuclei count vs DMSO), 5 days (fraction); higher = more cells survive
201T = system: 201T
In short: (§1)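 For relative viability, nuclei counts in treated wells were divided by those in vehicle wells. Lung cancer cell lines had been pin-tool dosed in 1536-well plates the day after seeding and cultured for 5 days, then fixed and stained in one step (final 0.05% Triton X-100, 1% formaldehyde, 1 ug/ml Hoechst) and imaged at 4×. Doses were one drug alone or a fixed anchor-drug dose plus five library-drug doses (not always all listed) in √10 steps, and values are duplicate-plate medians.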

ABC-1 = system: ABC-1
In short: as §1

EBC-1 = system: EBC-1
In short: as §1

EMC-BAC-2 = system: EMC-BAC-2
In short: as §1

EPLC-272H = system: EPLC-272H
In short: as §1

HCC-78 = system: HCC-78
In short: as §1

IA-LM = system: IA-LM
In short: as §1

LCLC-103H = system: LCLC-103H
In short: as §1

LOU-NH91 = system: LOU-NH91
In short: as §1

NCI-H1395 = system: NCI-H1395
In short: as §1

NCI-H1437 = system: NCI-H1437
In short: as §1

NCI-H1651 = system: NCI-H1651
In short: as §1

NCI-H1792 = system: NCI-H1792
In short: as §1

NCI-H1793 = system: NCI-H1793
In short: as §1

NCI-H1915 = system: NCI-H1915
In short: as §1

NCI-H1975 = system: NCI-H1975
In short: as §1

NCI-H2023 = system: NCI-H2023
In short: as §1

NCI-H23 = system: NCI-H23
In short: as §1

NCI-H2405 = system: NCI-H2405
In short: as §1

NCI-H647 = system: NCI-H647
In short: as §1

NCI-H661 = system: NCI-H661
In short: as §1

RERF-LC-KJ = system: RERF-LC-KJ
In short: as §1

SK-LU-1 = system: SK-LU-1
In short: as §1

UMC-11 = system: UMC-11
In short: as §1

Structure (SMILES): CCCCCCCCCCCC1=C(O)C(=O)C=C(O)C1=O [Embelin] + C[C@]1(O)C[C@@H](c2nc(-c3ccc4ccc(-c5ccccc5)nc4c3)c3c(N)nccn32)C1 [Linsitinib] (partner 1 µM)
- relative viability (201T; first compound 0.08 µM): 1.06
- relative viability (201T; first compound 0.8 µM): 1.1
- relative viability (201T; first compound 2.53 µM): 1.09
- relative viability (201T; first compound 8 µM): 1.01
- relative viability (ABC-1; first compound 0.08 µM): 0.863
- relative viability (ABC-1; first compound 0.8 µM): 0.786
- relative viability (ABC-1; first compound 2.53 µM): 0.772
- relative viability (ABC-1; first compound 8 µM): 0.825
- relative viability (EBC-1; first compound 0.08 µM): 0.946
- relative viability (EBC-1; first compound 0.8 µM): 1.01
- relative viability (EBC-1; first compound 2.53 µM): 0.998
- relative viability (EBC-1; first compound 8 µM): 0.751
- relative viability (EMC-BAC-2; first compound 0.08 µM): 0.845
- relative viability (EMC-BAC-2; first compound 0.8 µM): 0.862
- relative viability (EMC-BAC-2; first compound 2.53 µM): 0.844
- relative viability (EMC-BAC-2; first compound 8 µM): 0.842
- relative viability (EPLC-272H; first compound 0.08 µM): 1.31
- relative viability (EPLC-272H; first compound 0.8 µM): 1.48
- relative viability (EPLC-272H; first compound 2.53 µM): 1.32
- relative viability (EPLC-272H; first compound 8 µM): 1.03
- relative viability (HCC-78; first compound 0.08 µM): 0.516
- relative viability (HCC-78; first compound 0.8 µM): 0.623
- relative viability (HCC-78; first compound 2.53 µM): 0.52
- relative viability (HCC-78; first compound 8 µM): 0.413
- relative viability (IA-LM; first compound 0.08 µM): 0.425
- relative viability (IA-LM; first compound 0.8 µM): 0.799
- relative viability (IA-LM; first compound 2.53 µM): 0.536
- relative viability (IA-LM; first compound 8 µM): 0.241
- relative viability (LCLC-103H; first compound 0.08 µM): 1.03
- relative viability (LCLC-103H; first compound 0.8 µM): 1.11
- relative viability (LCLC-103H; first compound 2.53 µM): 1.1
- relative viability (LCLC-103H; first compound 8 µM): 1.03
- relative viability (LOU-NH91; first compound 0.08 µM): 1.02
- relative viability (LOU-NH91; first compound 0.8 µM): 1.23
- relative viability (LOU-NH91; first compound 2.53 µM): 1.03
- relative viability (LOU-NH91; first compound 8 µM): 0.877
- relative viability (NCI-H1395; first compound 0.08 µM): 1.22
- relative viability (NCI-H1395; first compound 0.8 µM): 1.38
- relative viability (NCI-H1395; first compound 2.53 µM): 0.99
- relative viability (NCI-H1395; first compound 8 µM): 0.873
- relative viability (NCI-H1437; first compound 0.08 µM): 1.01
- relative viability (NCI-H1437; first compound 0.8 µM): 1.1
- relative viability (NCI-H1437; first compound 2.53 µM): 1.24
- relative viability (NCI-H1437; first compound 8 µM): 0.76
- relative viability (NCI-H1651; first compound 0.08 µM): 0.955
- relative viability (NCI-H1651; first compound 0.8 µM): 1.1
- relative viability (NCI-H1651; first compound 2.53 µM): 1.04
- relative viability (NCI-H1651; first compound 8 µM): 0.878
- relative viability (NCI-H1792; first compound 0.08 µM): 0.589
- relative viability (NCI-H1792; first compound 0.8 µM): 0.607
- relative viability (NCI-H1792; first compound 2.53 µM): 0.72
- relative viability (NCI-H1792; first compound 8 µM): 0.434
- relative viability (NCI-H1793; first compound 0.08 µM): 0.736
- relative viability (NCI-H1793; first compound 0.8 µM): 1.15
- relative viability (NCI-H1793; first compound 2.53 µM): 1.5
- relative viability (NCI-H1793; first compound 8 µM): 0.853
- relative viability (NCI-H1915; first compound 0.08 µM): 1.17
- relative viability (NCI-H1915; first compound 0.8 µM): 1.11
- relative viability (NCI-H1915; first compound 2.53 µM): 1.13
- relative viability (NCI-H1915; first compound 8 µM): 1.12
- relative viability (NCI-H1975; first compound 0.08 µM): 0.976
- relative viability (NCI-H1975; first compound 0.8 µM): 0.994
- relative viability (NCI-H1975; first compound 2.53 µM): 1.04
- relative viability (NCI-H1975; first compound 8 µM): 0.973
- relative viability (NCI-H2023; first compound 0.08 µM): 0.707
- relative viability (NCI-H2023; first compound 0.8 µM): 0.66
- relative viability (NCI-H2023; first compound 2.53 µM): 0.794
- relative viability (NCI-H2023; first compound 8 µM): 0.609
- relative viability (NCI-H23; first compound 0.08 µM): 0.548
- relative viability (NCI-H23; first compound 0.8 µM): 0.547
- relative viability (NCI-H23; first compound 2.53 µM): 0.609
- relative viability (NCI-H23; first compound 8 µM): 0.652
- relative viability (NCI-H2405; first compound 0.08 µM): 0.978
- relative viability (NCI-H2405; first compound 0.8 µM): 1.16
- relative viability (NCI-H2405; first compound 2.53 µM): 0.973
- relative viability (NCI-H2405; first compound 8 µM): 0.92
- relative viability (NCI-H647; first compound 0.08 µM): 1.31
- relative viability (NCI-H647; first compound 0.8 µM): 1.27
- relative viability (NCI-H647; first compound 2.53 µM): 1.32
- relative viability (NCI-H647; first compound 8 µM): 1.28
- relative viability (NCI-H661; first compound 0.08 µM): 0.635
- relative viability (NCI-H661; first compound 0.8 µM): 0.717
- relative viability (NCI-H661; first compound 2.53 µM): 0.546
- relative viability (NCI-H661; first compound 8 µM): 0.623
- relative viability (RERF-LC-KJ; first compound 0.08 µM): 0.905
- relative viability (RERF-LC-KJ; first compound 0.8 µM): 0.89
- relative viability (RERF-LC-KJ; first compound 2.53 µM): 0.961
- relative viability (RERF-LC-KJ; first compound 8 µM): 0.908
- relative viability (SK-LU-1; first compound 0.08 µM): 1.17
- relative viability (SK-LU-1; first compound 0.8 µM): 1.28
- relative viability (SK-LU-1; first compound 2.53 µM): 1.1
- relative viability (SK-LU-1; first compound 8 µM): 0.993
- relative viability (UMC-11; first compound 0.08 µM): 1.03
- relative viability (UMC-11; first compound 0.8 µM): 1.08
- relative viability (UMC-11; first compound 2.53 µM): 1.11
- relative viability (UMC-11; first compound 8 µM): 0.984
